Experimental data: US6935334B2, “Enhancing therapeutic effectiveness of nitric oxide inhalation” (The General Hospital Corporation, priority 2000, dated 2005)

Legend:
[1] = system: hypoxic pulmonary vasoconstriction (HPV) in mice; assay: Change in incremental left pulmonary vascular resistance (ΔiLPV) in response to LMBO, a measure of HPV (Example 2, FIG. 8); type: in vivo, mouse
Procedure: We performed experiments on the change in incremental left pulmonary vascular resistance, ΔiLPV, in response to LMBO—a measure of HPV. HPV was impaired in wild-type mice challenged with endotoxin (FIG. 8). HPV was preserved in endotoxin-challenged mice treated with N-acetylcysteine at 500 mg/kg, but not 150 mg/kg (intraperitoneal administration simultaneously with endotoxin).

[2] = system: isolated-perfused mouse lungs preconstricted with U46619; assay: Pulmonary vasodilator response to NO inhalation in isolated, perfused and ventilated mouse lungs preconstricted with U46619; type: in vivo; conditions: for impairment of responsiveness to NO inhalation: wild-type mice treated with endotoxin, scavengers of reactive oxygen and nitrogen species; for vasodilator response to NO inhalation, compared to that in control mice: endotoxin-challenged (LPS 50 mg/kg i.p.) wild-type mice treated with NAC 150 mg/kg i.p. immediately and 3.5 hours later, lungs isolated 16 hours after endotoxin
Procedure: Isolated, Perfused, and Ventilated Mouse Lung Model Mice were killed by intraperitoneal injection of pentobarbital sodium (200 mg/kg body weight) and placed in a 37° C. water-jacketed chamber (Isolated Perfused Lung Size 1 Type 839; Hugo-Sachs Elektronik, March-Hugstetten, Germany). The trachea was isolated and intubated, and the lungs were ventilated with 21% O2, 6% CO2 and 73% N2 using a volume-controlled ventilator (model 687; Harvard Apparatus, South Natick, Mass.) at a ventilatory rate of 85 breaths/min and 2 cm H2O end-expiratory pressure. The tidal volume was adjusted to provide a peak inspiratory pressure of 10 cm H2O throughout each study. The lungs were exposed via a midline sternotomy, and a ligataure was placaed around the aorticopulmonary outflow tract. After injection of 10 IU heparin into the right ventricle, the pulmonary artery was cannulated with a stainless steel cannula (1 mm ID) via the right ventricle. The pulmonary venous effluent was drained via a stainless steel cannula (1 mm ID) placed through the apex of the left ventricle across the mitral valve and into the left atrium. Left atrial pressure was maintained at 2 mmHg. Lungs were perfused at a constant flow (50 ml. kg body weight^−1. min^−1; Ismatec Reglo-Analogue roller pump; Laboratoriumstechnik GmbH, Wertheim-Mondfeld, Germany) with a non-recirculating system at 37° C. The perfusate used was Hanks' Balanced Salt Solution (GibcoBRL, Grand Island, N.Y.) containing 1.26 mM CaCl2, 5.33 mM KCl, 0.44 mM KH2PO4, 0.50 mM MgCl2, 0.41 mM MgSO4, 138.0 mM NaCl, 4.0 mM NaHCO3, 0.3 mM Na2HPO4, and 5.6 mM glucose. Bovine serum albumin, 5%, and dextran, 5% (both from Sigma Chemical Co., St. Louis, Mo.), were added to the perfusate to prevent pulmonary edema, in the isolated, perfused, and ventilated rat lung, essentially as described in Holzmann et al., 1996, Am. J. Physiol. 271:L981-L986. Indomethacin, […] (Sigma Chemical Co.), and 1 mM L-NAME (Sigma Chemical Co.) were added to the perfusate to inhibit endogenous prostaglandin and NO synthesis, respectively. Sodium bicarbonate was added to adjust the perfusate pH to 7.34-7.43.
Pulmonary artery pressure (PAP) and left atrial pressure were measured via saline-filled membrane pressure transducers (Argon, Athens, Tex.) connected to a side port of the inflow and outflow cannulae, respectively. Airway pressure (Paw) was measured using a differential pressure transducer (model MP-45-32-871; Validyne Engineering Corp., Northridge, Calif.) connected to the inspiratory limb just before the Y piece. Pressure transducers were connected to a biomedical amplifier (Hewlett Packard 7754B, Andover, Mass.), and data were recorded at 150 Hz on a personal computer using an analog-to-digital interface with a data acquisition system (DI-220; Dataq Instruments, Akron, Ohio). The system was calibrated before each experiment.
For NO inhalation, NO gas (800 or 80 ppm NO in nitrogen, Airco, Murray Hill, N.J.) was blended (Oxygen Blender; Bird Corporation, Palm Springs, Calif.) with oxygen, carbon dioxide, and nitrogen to achieve a final concentration of 21% O2, 6% CO2, and the desired NO concentration. NO and higher oxidative states of NO (NOx; CLD 700 AL; Eco Physics, Dürmten, Switzerland), oxygen (Hudson Ventronics Ddivision, Temecula, Calif.), and carbon dioxide (Datex CO2 monitor; Puritan-Bennett Corpration, Los Angeles, Calif.) concentrations were monitored continuously.
Pulmonary Vascular Response to NO inhalation after Lipopolysaccharide Challenge Wild-type mice and NOS2-deficient mice were injected intraperitoneally with 50 mg/kg body weight Escherichia coli 0111:B4 lipopolysaccharide (LPS; Difco Laboratories, Detroit, Mich.) dissolved in saline 16 h before isolated lung perfusion. This time point was chosen based on previous studies in rats (Holzmann et al., 1996, Am. J. Physiol. 271:L981-L986). Untreated wild-type and NOS2-deficient mice served as controls. […]

[3] = system: hypoxic pulmonary vasoconstriction (HPV) in mice; assay: Percent increase in left pulmonary vascular resistance (LPVR) after LMBO, one-lung hypoxia model (Example 3, FIG. 13); type: in vivo, mouse; conditions: endotoxin-challenged wild-type mice
Procedure: Wild-type (SV129B6/F1) mice and 5LO-deficient mice were anesthetized and studied at thoracotomy. Left pulmonary artery flow (QLPA) and pulmonary (PPA) and systemic (PSA) artery pressures were measured continuously.
HPV was assessed as the percent increase in left pulmonary vascular resistance (the slope of the P/Q-relationship, LPVR) after left main bronchus occlusion (LMBO). LMBO increased LPVR by 99±13% in 5LO deficient mice, and by 100±11% in wild-type mice.

[4] = system: pulmonary vasculature of wild-type mice; assay: Pulmonary vasoconstrictor response to intravenous angiotensin II; type: in vivo, mouse; conditions: for PVR: 5.0 μg/kg per minute angiotensin II
Procedure: Group 6: pulmonary vascular response to increasing doses of intravenous angiotensin II. SV129/B6F1 wild-type mice treated with endotoxin (n=5) or with saline (n=3) were studied 22 hours after the challenge.
Infusion of angiotensin II. Increasing doses of angiotensin II (0.05, 0.5, and 5.0 ng/g bw per minute) dissolved in sterile normal saline were infused via the central venous catheter using an infusion pump (Pump 11; Harvard Apparatus Co., South Natick, Mass.). PLA, PPA, PSA, and QLTAF were continuously measured.

[Cl-].[Mn+3].[O-]c1ccccc1C=NCCN=Cc1ccccc1[O-] [EUK-8]
HPV (ΔiLPV in response to LMBO) ([1]; endotoxin-challenged mice treated with EUK-8): completely preserved | impairment of responsiveness to NO inhalation [2]: prevented impairment of responsiveness to NO inhalation

CN(C)C(=O)CCSC(SCCC(=O)O)c1cccc(/C=C/c2ccc3ccc(Cl)cc3n2)c1 (stereo not drawn) [MK571]
HPV (LMBO-induced increase in left PVR) [3]: preserved

CC(C)c1ccc2c(c1)c(SC(C)(C)C)c(CC(C)(C)C(=O)O)n2Cc1ccc(Cl)cc1 [MK886]
HPV (LMBO-induced increase in left PVR) [3]: preserved

CC(=O)N[C@@H](CS)C(=O)O [N-acetylcysteine]
HPV (ΔiLPV in response to LMBO) ([1]; endotoxin-challenged mice, 150 mg/kg intraperitoneally simultaneously with endotoxin): not | HPV (ΔiLPV in response to LMBO) ([1]; endotoxin-challenged mice, 500 mg/kg intraperitoneally simultaneously with endotoxin): preserved | HPV ([1]; endotoxin-challenged wild-type mice treated with N-acetylcysteine and exposed to 20 ppm NO for 22 hours): not impaired | vasodilator response to NO inhalation, compared to that in control mice ([2]; 0.4 ppm NO): 75±14% | vasodilator response to NO inhalation, compared to that in control mice ([2]; 4.0 ppm NO): 103±15% | vasodilator response to NO inhalation, compared to that in control mice ([2]; 40 ppm NO): 91±7% | responsiveness to NO inhalation after prolonged NO exposure ([2]; endotoxin-challenged, NAC-treated mice exposed to 20 ppm NO for 16 hours): preserved | lipopolysaccharide-induced attenuation of vasoreactivity to NO inhalation (FIG. 5) ([2]; two doses of 150 mg/kg i.p., simultaneously with lipopolysaccharide and 3.5 hours later): completely protected | impairment of responsiveness to NO inhalation [2]: prevented impairment of responsiveness to NO inhalation

CNC(=O)NC [dimethylurea]
impairment of responsiveness to NO inhalation [2]: prevented impairment of responsiveness to NO inhalation

angiotensin II: vasoconstrictor infused intravenously to test pulmonary vascular contractile function (DRVYIHPF; Angiotensin-2; UniProt P01019 25-32, looked up)
PVR ([4]; endotoxin-challenged wild-type mice, baseline 55±11): 174±40 mmHg·min·g·mL^−1 | PVR ([4]; saline-treated wild-type mice without endotoxin, baseline 74±24): 184±25 mmHg·min·g·mL−1 | PLA in response to angiotensin II infusion ([4]; saline-treated and endotoxin-treated wild-type mice (either group)): did not change

B1: catalase: scavenger of reactive oxygen and nitrogen species (anti-ROS agent) (protein, UniProt P04040 2-527, looked up)
Catalase: ADSRDPASDQMQHWKEQRAAQKADVLTTGAGNPVGDKLNVITVGPRGPLLVQDVVFTDEMAHFDRERIPERVVHAKGAGAFGYFEVTHDITKYSKAKVFEHIGKKTPIAVRFSTVAGESGSADTVRDPRGFAVKFYTEDGNWDLVGNNTPIFFIRDPILFPSFIHSQKRNPQTHLKDPDMVWDFWSLRPESLHQVSFLFSDRGIPDGHRHMNGYGSHTFKLVNANGEAVYCKFHYKTDQGIKNLSVEDAARLSQEDPDYGIRDLFNAIATGKYPSWTFYIQVMTFNQAETFPFNPFDLTKVWPHKDYPLIPVGKLVLNRNPVNYFAEVEQIAFDPSNMPPGIEASPDKMLQGRLFAYPDTHRHRLGPNYLHIPVNCPYRARVANYQRDGPMCMQDNQGGAPNYYPNSFGAPEQQPSALEHSIQYSGEVRRFNTANDDNVTQVRAFYVNVLNEEQRKRLCENIAGHLKDAQIFIQKKAVKNFTEVHPDYGSHIQALLDKYNAEKPKNAIHTFVQSGSHLAAREKANL
impairment of responsiveness to NO inhalation [2]: prevented impairment of responsiveness to NO inhalation
